According to US8163509B2, “Biological markers predictive of anti-cancer response to insulin-like growth factor-1 receptor kinase inhibitors” (The Regents of the University of Colorado, A Body Corporate, priority 2008, dated 2012):
Where two headings read alike, the source gives them in different places.

Tests used:
Assay in all cases: SRB proliferation assay, 72 h
Colo205 CRC cell line = type: cell-based; conditions: Homo sapiens, COLO 205
Method: (§1) FIG. 17: Results of cell proliferation assay on the panel of 27 CRC cell lines. Cell proliferation was evaluated by SRB following exposure to OSI-906 for 72 hours. Cells were plated at an optimized density in 96-well plates, incubated overnight at 37° C., and then exposed to a serial dilution of OSI-906. After 72 hours incubation, cells were fixed with trichloroacetic acid and an SRB was performed as described in materials and methods.
(§2) Cell Lines and Culture. […] human colon cancer cell lines, were obtained from American Type Culture Collection (Manassas, Va.). Cells were grown in RPMI medium supplemented with 10% fetal bovine serum, 1% non-essential amino acids, 1% penicillin/streptomycin and were maintained at 37° C. in an incubator under an atmosphere containing 5% CO2. The cells were routinely screened for the presence of mycoplasma (MycoAlert, Cambrex Bio Science, Baltimore, Md.) and were exposed to PQIP when they reached approximately 70% confluence.
(§3) The CRC cell lines were treated with a range of concentrations of PQIP (from 0.05-5 μM) for 72 hours.
(§4) Cell Lines and Culture: Twenty-seven human colon cancer cell lines, were obtained from American Type Culture Collection (Manassas, Va.). The GEO cells were a generous gift from Dr. Fortunato Ciardiello (Cattedra di Oncologia Medica, Dipartimento Medico-Chirurgico di Internistica Clinica e Sperimentale “F Magrassi e A Lanzara,” Seconda Università degli Studi di Napoli, Naples). All cells except GEO were grown in RPMI medium supplemented with 10% fetal bovine serum, 1% non-essential amino acids, 1% penicillin/streptomycin and were maintained at 37° C. in an incubator under an atmosphere containing 5% CO2. GEO cells were grown in DMEM/F12 supplemented with 10% fetal bovine serum, 1% non-essential amino acids, 1% penicillin/streptomycin. The cells were routinely screened for the presence of mycoplasma (MycoAlert, Cambrex Bio Science, Baltimore, Md.) and were exposed to OSI-906 when they reached approximately 70% confluence. OSI-906 was provided by OSI Pharmaceuticals, (Boulder, Colo.) and prepared as a 10 mM stock solution in DMSO.
(§5) Assessment of responsiveness of a panel of CRC cell lines to OSI-906. In order to assess CRC cell lines with differential sensitivity to OSI-906, a panel of 27 CRC cell lines were exposed to increasing concentrations of OSI-906 and proliferation was measured using the SRB assay as described previously (Pitts, T M, et al. Mol Cancer Ther 2009; 8(2):342-9). As depicted in FIG. 17 there was a wide range of sensitivity of the CRC cell lines to OSI-906, the majority of the cell lines failing to reach an IC50 up to 5 μmol/L, but a clear distinction could be made between the cell lines that were sensitive and the cell lines that were resistant.

HCT8 CRC cell line = type: cell-based; conditions: Homo sapiens
Method: as §1, §2, §3, §4, §5

LS174T CRC cell line = type: cell-based; conditions: Homo sapiens
Method: as §1, §2, §3, §4, §5

NCI-H508 CRC cell line = type: cell-based; conditions: Homo sapiens
Method: as §1, §2, §3, §4, §5

SW1116 CRC cell line = type: cell-based; conditions: Homo sapiens
Method: as §1, §2, §3, §4, §5

SW1417 CRC cell line = type: cell-based; conditions: Homo sapiens
Method: as §1, §2, §3, §4, §5

SW403 CRC cell line = type: cell-based; conditions: Homo sapiens
Method: as §1, §2, §3, §4, §5

SW837 CRC cell line = type: cell-based; conditions: Homo sapiens
Method: as §1, §2, §3, §4, §5

T84 CRC cell line = type: cell-based; conditions: Homo sapiens
Method: as §1, §2, §3, §4, §5

LS513 CRC cell line = type: cell-based, human
Method: as §1, §2
(§6) Cytotoxicity and Combination Effects: HT29, HCT116, RKO, and LS513 CRC cell lines were exposed to 0-10 nM SN-38 (7-Ethyl-10-hydroxy-camptothecin), 0-10 μM Oxaliplatin, or 0-50 μM 5-Fluorouracil (5-FU) for 72 hours. HT29, HCT116, RKO, and LS513 CRC cell lines were exposed to PQIP in combination with SN-38, Oxaliplatin or 5-FU. In all combinations, cells were seeded in 96-well flat bottomed plates and left overnight. PQIP and chemotherapy were both added for 72 hours. The results of the combinations were analyzed by the Chou and Talalay method with Calcusyn (Biosoft, Ferguson, Mo.).
as §3
(§7) Combination treatment of PQIP with Chemotherapy in Colon Cancer Cell Lines: IGF1R is overexpressed in CRC and has been associated with resistance to chemotherapy. Therefore, we investigated the effect of PQIP in combination with standard chemotherapy for CRC. Four CRC cell lines including, two PQIP sensitive and two PQIP resistant, were chosen for combinations. HT29 and LS513 CRC cell lines were classified as sensitive, with IC50's around 0.3 μmol/L. HCT116 and RKO CRC cell lines were classified as resistant, with IC50>5 μmol/L. Concentrations were chosen based on single agent proliferation curves for each compound. Cells were exposed to PQIP and chemotherapy (SN38, oxaliplatin, or 5-Fluorouracil) concurrently for 72 h and combinations were assessed using the SRB assay. […] It thus appears that biomarkers which predict tumor cell sensitivity will also indicate which cells will respond in a synergistic manner to an IGF-1R kinase inhibitor (e.g. PQIP) and chemotherapy (i.e. SN38, oxaliplatin, or 5-Fluorouracil).
Cell Lines and Culture: Twenty-seven human colon cancer cell lines, were obtained from American Type Culture Collection (Manassas, Va.). The GEO cells were a generous gift from Dr. Fortunato Ciardiello (Cattedra di Oncologia Medica, Dipartimento Medico-Chirurgico di Internistica Clinica e Sperimentale “F Magrassi e A Lanzara,” Seconda Università degli Studi di Napoli, Naples). All cells except GEO were grown in RPMI medium supplemented with 10% fetal bovine serum, 1% non-essential amino acids, 1% penicillin/streptomycin and were maintained at 37° C. in an incubator under an atmosphere containing 5% CO2. GEO cells were grown in DMEM/F12 supplemented with 10% fetal bovine serum, 1% non-essential amino acids, 1% penicillin/streptomycin. […]

RKO CRC cell line = type: cell-based, human; conditions: for IC50: Homo sapiens
Method: as §1, §2, §6, §3
as §7, with “5-Fluorouracil). […]” for “5-Fluorouracil).”

[1] = 72 hours, read-out: IC50, proliferation, OSI-906 (SRB)
[2] = 72 hours, 0.05-5 μM, read-out: IC50, growth inhibition by PQIP (SRB)

Question: Which IC50 (Colo205 CRC cell line; CoLo205, read-out: S/I/R to OSI-906) does the source give for `C[C@]1(O)C[C@@H](c2nc(-c3ccc4ccc(-c5ccccc5)nc4c3)c3c(N)nccn32)C1` [OSI-906, cis-3-[8-amino-1-(2-phenyl-quinolin-7-yl)-imidazo[1,5-a]pyrazin-3-yl]-1-methyl-cyclobutanol] here?
Answer: ≤ 1500 nM

Question: What about the IC50 (Colo205 CRC cell line; Colo205, 72 hours, read-out: IC50, proliferation, OSI-906 (SRB)) of the same compound?
Answer: ≤ 1500 nM

Question: And the IC50 (HCT8 CRC cell line; HCT-8, 72 hours, read-out: IC50, proliferation, OSI-906 (SRB))?
Answer: > 5 µM

Question: What about the IC50 (HCT8 CRC cell line; HCT-8, read-out: S/I/R to OSI-906) of the same compound?
Answer: > 5 µM

Question: And the IC50 (LS174T CRC cell line; [1])?
Answer: > 5 µM

Question: And the IC50 (LS174T CRC cell line; read-out: S/I/R to OSI-906)?
Answer: > 5 µM

Question: And the IC50 (NCI-H508 CRC cell line; [1])?
Answer: > 5 µM

Question: And the IC50 (NCI-H508 CRC cell line; read-out: S/I/R to OSI-906)?
Answer: > 5 µM

Question: What about the IC50 (SW1116 CRC cell line; SW 1116, 72 hours, read-out: IC50, proliferation, OSI-906 (SRB)) of the same compound?
Answer: > 5 µM

Question: And the IC50 (SW1116 CRC cell line; SW 1116, read-out: S/I/R to OSI-906)?
Answer: > 5 µM

Question: What about the IC50 (SW1417 CRC cell line; [1]) of the same compound?
Answer: > 5 µM

Question: And the IC50 (SW1417 CRC cell line; read-out: S/I/R to OSI-906)?
Answer: > 5 µM

Question: And the IC50 (SW403 CRC cell line; SW-403, 72 hours, read-out: IC50, proliferation, OSI-906 (SRB))?
Answer: > 5 µM

Question: And the IC50 (SW403 CRC cell line; SW-403, read-out: S/I/R to OSI-906)?
Answer: > 5 µM

Question: What about the IC50 (SW837 CRC cell line; [1]) of the same compound?
Answer: > 5 µM

Question: What about the IC50 (SW837 CRC cell line; read-out: S/I/R to OSI-906) of the same compound?
Answer: > 5 µM

Question: And the IC50 (T84 CRC cell line; [1])?
Answer: > 5 µM

Question: And the IC50 (T84 CRC cell line; T-84, read-out: S/I/R to OSI-906)?
Answer: > 5 µM

Question: What about the IC50 (LS513 CRC cell line; Homo sapiens, LS-513, 72 h, LS513, 72 hours, read-out: IC50, proliferation, OSI-906 (SRB)) of the same compound?
Answer: ≤ 1500 nM

Question: And the IC50 (LS513 CRC cell line; Homo sapiens, LS-513, LS513, read-out: S/I/R to OSI-906)?
Answer: ≤ 1500 nM

Question: What about the IC50 (RKO CRC cell line; [1]) of the same compound?
Answer: > 5 µM

Question: What about the IC50 (RKO CRC cell line; read-out: S/I/R to OSI-906) of the same compound?
Answer: > 5 µM

Question: What does the source list for `CN1CCN([C@H]2C[C@@H](c3nc(-c4ccc5ccc(-c6ccccc6)nc5c4)c4c(N)nccn43)C2)CC1` [PQIP, cis-3-[3-(4-Methyl-piperazin-1-yl)-cyclobutyl]1-(2-phenyl-quinolin-7-yl)-imidazo[1,5-a]pyrazin-8-ylamine]?
Answer: IC50 (Colo205 CRC cell line; Colo205, 72 hours, 0.05-5 μM, read-out: IC50, growth inhibition by PQIP (SRB)): < 500 nM; IC50 (HCT8 CRC cell line; HCT-8, 72 hours, 0.05-5 μM, read-out: IC50, growth inhibition by PQIP (SRB)): > 5 µM; IC50 (LS174T CRC cell line; [2]): > 5 µM; IC50 (NCI-H508 CRC cell line; [2]): > 5 µM; IC50 (SW1116 CRC cell line; SW 1116, 72 hours, 0.05-5 μM, read-out: IC50, growth inhibition by PQIP (SRB)): > 5 µM; IC50 (SW1417 CRC cell line; [2]): > 5 µM; IC50 (SW403 CRC cell line; SW-403, 72 hours, 0.05-5 μM, read-out: IC50, growth inhibition by PQIP (SRB)): > 5 µM; IC50 (SW837 CRC cell line; [2]): > 5 µM; IC50 (T84 CRC cell line; [2]): > 5 µM; IC50 (LS513 CRC cell line; Homo sapiens, LS-513, 72 h, LS513, 72 hours, 0.05-5 μM, read-out: IC50, growth inhibition by PQIP (SRB)): < 500 nM; IC50 (LS513 CRC cell line; LS513, 72 hours, 0.05-5 μM, read-out: IC50, growth inhibition by PQIP (SRB)): ~300 nM; combination index (CI) values, PQIP and chemotherapy (LS513 CRC cell line; LS513, PQIP with SN38, oxaliplatin or 5-Fluorouracil concurrently 72 h, nearly all CI values, Chou and Talalay): 0.2-1.0; IC50 (RKO CRC cell line; [2]): > 5 µM; combination index (CI) values, PQIP and chemotherapy (RKO CRC cell line; PQIP with SN38, oxaliplatin or 5-Fluorouracil concurrently 72 h, nearly all combinations, Chou and Talalay): 0.6-1.4
